Data reported in patent US6828317B2, “Antimicrobial thiadiazinone derivatives and their application for treatment of bacterial infections” (Pharmacia & Upjohn Company, priority 2002, dated 2004).
In brackets after ≈: the same amount, converted by molar mass.

What was measured:
S. pneumoniae UC9912 = test: MIC by agar dilution, S. pneumoniae UC9912; type: cell-based; conditions: Streptococcus pneumoniae, Mueller Hinton agar, overnight at 35° C.
Excerpt: (§1) The in vitro activity of compounds of the subject invention may be assessed by standard testing procedures such as the determination of minimum inhibitory concentration (MIC) by agar dilution as described in “Approved Standard. Methods for Dilution Antimicrobial Susceptibility Tests for Bacteria that Grow Aerobically,” 3rd ed., published 1993 by the National Committee for Clinical Laboratory standards, Villanova, Pa., USA. The in vitro MICs of test compounds may be determined by a standard agar dilution method. A stock drug solution of each analog is prepared in a preferred solvent, usually DMSO:H2O (1:3). Serial 2-fold dilutions of each sample are made using 1.0 ml aliquots of sterile distilled water. To each 1.0 ml aliquot of drug is added 9 ml of molten Mueller Hinton agar medium. The drug-supplemented agar is mixed, poured into 15×100 mm petri dishes, and allowed to solidify and dry prior to inoculation. Vials of each of the test microorganisms are maintained frozen in the vapor phase of a liquid nitrogen freezer. Test cultures are grown overnight at 35° C. on the medium appropriate for the microorganism. Colonies are harvested with a sterile swab, and cell suspensions are prepared in Trypticase Soy broth (TSB) to equal the turbidity of a 0.5 McFarland standard. A 1:20 dilution of each suspension is made in TSB. The plates containing the drug supplemented agar are inoculated with a 0.001 ml drop of the cell suspension using a Steers replicator, yielding approximately 10^4 to 10^5 cells per spot. The plates are incubated overnight at 35° C. Following incubation the Minimum Inhibitory Concentration (MIC μg/ml), the lowest concentration of drug that inhibits visible growth of the microorganism, is read and recorded.

S. aureus UC9213 = test: MIC by agar dilution, S. aureus UC9213; type: cell-based; conditions: Staphylococcus aureus, Mueller Hinton agar, overnight at 35° C.
Excerpt: as §1

H. influenzae 30063 = test: MIC by agar dilution, H. influenzae 30063; type: cell-based; conditions: Haemophilus influenzae, Mueller Hinton agar, overnight at 35° C.
Excerpt: as §1

MIC (S. pneumoniae UC9912) [µg/mL]	MIC (S. aureus UC9213) [µg/mL]	MIC (H. influenzae 30063) [µg/mL]	melting point [°C]	SMILES
< 0.06	0.5 (≈ 1.36 µM)	1 (≈ 2.73 µM)	206 to 209	CC(=O)NC[C@H]1CN(c2ccc(C3=NNC(=O)CS3)c(F)c2)C(=O)O1 [Example 1, N-{3-[3-Fluoro-4-(5-oxo-5,6-dihydro-4H-[1,3,4]thiadiazin-2-yl)-phenyl]-2-oxo-oxazolidin-5(S)-ylmethyl}-acetamide]
0.25 (≈ 0.657 µM)	1 (≈ 2.63 µM)	4 (≈ 10.5 µM)	200 to 202	CC(=O)NC[C@H]1CN(c2ccc(C3=NNC(=O)[C@H](C)S3)c(F)c2)C(=O)O1 [Example 2, N-{3-[3-Fluoro-4-(6(S)-methyl-5-oxo-5,6-dihydro-4H-[1,3,4]thiadiazin-2-yl)-phenyl]-2-oxo-oxazolidin-5(S)-ylmethyl}-acetamide]
0.25 (≈ 0.657 µM)	1 (≈ 2.63 µM)	4 (≈ 10.5 µM)	205 to 206	CC(=O)NC[C@H]1CN(c2ccc(C3=NNC(=O)[C@@H](C)S3)c(F)c2)C(=O)O1 [Example 3, N-{3-[3-Fluoro-4-(6(R)-methyl-5-oxo-5,6-dihydro-4H-[1,3,4]thiadiazin-2-yl)-phenyl]-2-oxo-oxazolidin-5(S)-ylmethyl}-acetamide]
0.25 (≈ 0.634 µM)	2 (≈ 5.07 µM)	16 (≈ 40.6 µM)	179 to 181	CC(=O)NC[C@H]1CN(c2ccc(C3=NNC(=O)C(C)(C)S3)c(F)c2)C(=O)O1 [Example 4, N-{3-[4-(6,6-Dimethyl-5-oxo-5,6-dihydro-4H-[1,3,4]thiadiazin-2-yl)-3-fluorophenyl]-2-oxo-oxazolidin-5(S)-ylmethyl}-acetamide]
2 (≈ 5.07 µM)	4 (≈ 10.1 µM)	32 (≈ 81.1 µM)	177 to 179	CCC1SC(c2ccc(N3C[C@H](CNC(C)=O)OC3=O)cc2F)=NNC1=O (stereo partly drawn) [Example 5, N-{3-[3-Fluoro-4-(6-ethyl-5-oxo-5,6-dihydro-4H-[1,3,4]thiadiazin-2-yl)-phenyl]-2-oxo-oxazolidin-5(S)-ylmethyl}-acetamide]
			201 to 203	CC(=O)NC[C@H]1CN(c2ccc(C3=NNC(=O)C(C(C)C)S3)c(F)c2)C(=O)O1 (stereo partly drawn) [Example 7, N-{3-[3-Fluoro-4-(6-isopropyl-5-oxo-5,6-dihydro-4H-[1,3,4]thiadiazin-2-yl)-phenyl]-2-oxo-oxazolidin-5(S)-ylmethyl}-acetamide]
0.5 (≈ 1.23 µM)	2 (≈ 4.92 µM)	32 (≈ 78.7 µM)	214 to 215	CC(=O)NC[C@H]1CN(c2ccc(C3=NNC(=O)C4(CCC4)S3)c(F)c2)C(=O)O1 [Example 8, N-{3-[3-Fluoro-4-(9-oxo-5-thia-7,8-diazaspiro[3.5]non-6-en-6-yl)-phenyl]-2-oxo-oxazolidin-5(S)-ylmethyl}-acetamide]
0.5 (≈ 1.13 µM)	4 (≈ 9.04 µM)	16 (≈ 36.2 µM)	122 to 123	CC(=O)NC[C@H]1CN(c2ccc(C3=NNC(=O)C(c4ccccc4)S3)c(F)c2)C(=O)O1 (stereo partly drawn) [Example 9, N-{3-[3-Fluoro-4-(5-oxo-6-phenyl-5,6-dihydro-4H-[1,3,4]thiadiazin-2-yl)-phenyl]-2-oxo-oxazolidin-5(S)-ylmethyl}-acetamide]
			218 to 220	CC(=O)NC[C@H]1CN(c2ccc(C3=NNC(=O)C(F)S3)c(F)c2)C(=O)O1 (stereo partly drawn) [Example 10, N-{3-[3-Fluoro-4-(6-fluoro-5-oxo-5,6-dihydro-4H-[1,3,4]thiadiazin-2-yl)-phenyl]-2-oxo-oxazolidin-5(S)-ylmethyl}-acetamide]
< 0.06	1 (≈ 2.63 µM)	2 (≈ 5.26 µM)	192 to 193	CCC(=O)NC[C@H]1CN(c2ccc(C3=NNC(=O)CS3)c(F)c2)C(=O)O1 [Example 15, N-{3-[3-Fluoro-4-(5-oxo-5,6-dihydro-4H-[1,3,4]thiadiazin-2-yl)-phenyl]-2-oxo-oxazolidin-5(S)-ylmethyl}-propionamide]
0.125 (≈ 0.319 µM)	2 (≈ 5.1 µM)	2 (≈ 5.1 µM)	239 to 240	O=C1CSC(c2ccc(N3C[C@H](CNC(=O)C4CC4)OC3=O)cc2F)=NN1 [Example 16, Cyclopropanecarboxylic acid {3-[3-fluoro-4-(5-oxo-5,6-dihydro-4H-[1,3,4]thiadiazin-2-yl)-phenyl]-2-oxo-oxazolidin-5(S)-ylmethyl}-amide]
0.125 (≈ 0.327 µM)	2 (≈ 5.23 µM)	4 (≈ 10.5 µM)	157 to 158	O=C(CO)NC[C@H]1CN(c2ccc(C3=NNC(=O)CS3)c(F)c2)C(=O)O1 [Example 17, N-{3-[3-Fluoro-4-(5-oxo-5,6-dihydro-4H-[1,3,4]thiadiazin-2-yl)-phenyl]-2-oxo-oxazolidin-5(S)-ylmethyl}-2-hydroxyacetamide]
0.125 (≈ 0.34 µM)	2 (≈ 5.44 µM)	4 (≈ 10.9 µM)	235 to 236	NC(=O)NC[C@H]1CN(c2ccc(C3=NNC(=O)CS3)c(F)c2)C(=O)O1 [Example 18, {3-[3-Fluoro-4-(5-oxo-5,6-dihydro-4H-[1,3,4]thiadiazin-2-yl)-phenyl]-2-oxo-oxazolidin-5(S)-ylmethyl}-urea]
0.125 (≈ 0.327 µM)	1 (≈ 2.62 µM)	4 (≈ 10.5 µM)		COC(=O)NC[C@H]1CN(c2ccc(C3=NNC(=O)CS3)c(F)c2)C(=O)O1 [Example 19]
2 (≈ 4.71 µM)	2 (≈ 4.71 µM)	64 (≈ 151 µM)	167 to 168	CC(C)(C)OC(=O)NC[C@H]1CN(c2ccc(C3=NNC(=O)CS3)c(F)c2)C(=O)O1 [Example 20, N-{3-[3-Fluoro-4-(5-oxo-5,6-dihydro-4H-[1,3,4]thiadiazin-2-yl)-phenyl]-2-oxo-oxazolidin-5(S)-ylmethyl}-carbamic acid tert-butyl ester]
0.5 (≈ 1.22 µM)	4 (≈ 9.79 µM)	8 (≈ 19.6 µM)	176 to 178	CC(=O)CC(=O)NC[C@H]1CN(c2ccc(C3=NNC(=O)CS3)c(F)c2)C(=O)O1 [Example 21, N-{3-[3-Fluoro-4-(5-oxo-5,6-dihydro-4H-[1,3,4]thiadiazin-2-yl)-phenyl]-2-oxo-oxazolidin-5(S)-ylmethyl}-3-oxo-butyramide]
0.06 (≈ 0.117 µM)	1 (≈ 1.95 µM)	> 64		CO/N=C/c1ccc(/C=C/C(=O)NC[C@H]2CN(c3ccc(C4=NNC(=O)CS4)c(F)c3)C(=O)O2)cc1 [Example 24, N-{3-[3-Fluoro-4-(5-oxo-5,6-dihydro-4H-[1,3,4]thiadiazin-2-yl)-phenyl]-2-oxo-oxazolidin-5(S)-ylmethyl}-3-[4-(methoxyimino-methyl)-phenyl]-acrylamide]
			134 to 136	CC(C)(C)OC(=O)NC[C@H]1CN(c2ccc(C3=NNC(=S)CS3)c(F)c2)C(=O)O1 [Example 28, N-{3-[3-Fluoro-4-(5-thioxo-5,6-dihydro-4H-[1,3,4]thiadiazin-2-yl)-phenyl]-2-oxo-oxazolidin-5(S)-ylmethyl}-carbamic acid tert-butyl ester]
			174 to 177	CC(=O)NC[C@H]1CN(c2ccc(C3=NNC(=O)C(OC(C)=O)S3)c(F)c2)C(=O)O1 (stereo partly drawn) [Example 31, Acetic acid 2-{4-[5(S)-(acetylaminomethyl)-2-oxo-oxazolidin-3-yl]-2-fluorophenyl}-5-oxo-5,6-dihydro-4H-[1,3,4]thiadiazin-6-yl ester]
			157 to 158	COC(=O)CN1N=C(c2ccc(N3C[C@H](CNC(C)=O)OC3=O)cc2F)SCC1=O [Example 33]
